Measurements from US20080299598A1, “Detector Comprising a Membrane Perturbation - Detecting Polymer and Functional Membrane Fragments” (priority 2004, published 2008).

How the values were obtained:
[1] = tested on: plasma membrane fragments obtained from PC12 cells; experiment: Chromatic response (% CR) of the polydiacetylene construct made with plasma membrane fragments from PC12 cells (detects membrane-permeating drugs); type: in vitro ADME; details: analyte up to 11 μM; 25 mM Tris base pH 8; FIG. 2
Procedure: FIG. 2 illustrates the detection of a drug molecule capable of permeating cellular membrane using the construct of the invention (comprising plasma membrane fragments obtained from PC12 cells and polydiacetylene).
(§1) 20 μl of 10,12-tricosadionic acid taken from a stock solution in 60 mM chloroform/ethanol (1:1) are dried in vacuo up to constant weight. The dried material is then resuspended in 1.950 ml deionized water and subjected to probe sonication at 70° C. for 3 minutes. The solution thus obtained is then cooled for 15 minutes, and 50 μl of plasma membrane from PC12 cells (prepared as described hereinabove) is added thereto. The vesicle suspension obtained thereby is then subject to another round of sonication for 10 seconds, left to cool to room temperature and than stored at 4° C. overnight.
Aqueous stock solutions containing 5.2 mg/ml propranolol and 1.5 mg/ml amoxicillin were prepared. […]
FIG. 2 depicts the chromatic response factor calculated for various Propranol- or Amoxicillin-containing samples on the basis of the UV-vis spectra measured, versus the concentration of the analyte (that is, either Propranol or Amoxicillin) in said samples. […]

muscarinic receptor = experiment: Chromatic response (% CR) of the polydiacetylene construct made with crude membrane fragments from PC12 cells overexpressing the muscarinic receptor; type: binding; details: atropine up to 20 μM; 25 mM Tris base pH 8; compared with construct from regular PC12 crude membrane; FIG. 1
Procedure: PC12 cells overexpressing the muscarinic receptors were prepared using conventional transfection techniques, as described, for example, by Sadot et al. [Israel Journal of neurochemistry (1996 February), 66(2), 877-80.]
as §1, with “crude” for “plasma”, “hereinabove and containing 10 mg/ml protein)” for “hereinabove)”
An aqueous stock solution containing Atropine at a concentration of 0.55 mg/ml was prepared. […]
The UV-vis spectroscopic measurements were carried out three times for each of the samples prepared, using a Jena Analytical Elisa-reader using 96 well microplates. The blue-to-red chromatic transitions were quantified using the chromatic response factor, as defined below:
where Ablue and Ared are the absorbance measured at about 640 nm and about 500 nm, respectively. […]

SMILES	chromatic change (% CR) [1]	chromatic transition (% CR) (muscarinic receptor)
CC(C)NCC(O)COc1cccc2ccccc12 (stereo not drawn) [propranolol]	high % CR	
CN1[C@@H]2CC[C@H]1C[C@@H](OC(=O)C(CO)c1ccccc1)C2 (stereo partly drawn) [atropine, Atropine]		high % CR
CC1(C)S[C@@H]2[C@H](NC(=O)[C@H](N)c3ccc(O)cc3)C(=O)N2[C@H]1C(=O)O [Amoxicillin]	very low % CR	
